Measurements reported in patent publication US20230190760A1, “ADVANTAGEOUS THERAPIES FOR DISORDERS MEDIATED BY IKAROS OR AIOLOS” (C4 Therapeutics, Inc., priority 2020, published 2023).

Columns and labels:
[1] = test system: Caspase 3/7 activity in NCIH929 multiple myeloma cells; assay: Apoptosis induction, Caspase 3/7 activity in NCIH929 cells; assay type: cell-based; conditions: Homo sapiens, NCI-H929, 72 h, read-out: EC50, caspase 3/7 activity
Description: 30 μL NCIH929 cells were seeded into the 384-well plates in RPMI medium containing 10% FBS and 0.05 mM 2-mercaptoethanol at a cell density of 1000 cells per well. Cells treated in the absence of the test compound were the negative control. Following compound treatment, cells were incubated at 37° C. with 5% CO2 for 72 hr. 30 μL reconstituted Caspase 3/7 Assay detection reagent was added to each well and luminescence was acquired on EnVision™ Multilabel Reader (PerkinElmer, Santa Clara, Calif., USA).

[2] = test system: NCI-H929 multiple myeloma tumors; assay: NCI-H929 multiple myeloma xenograft, NOD SCID mice (Example 13); assay type: in vivo; conditions: 3000 μg/kg PO QD
Description: Compound 1 efficacy in two multiple myeloma cell lines (NC-H929) and (RPMI-8226) was evaluated at four different doses: 3 μg/kg, 10 μg/kg, 30 μg/kg, and 100 μg/kg. Compound 1 was administered QD (every day) orally (PO). […]
For the NCI-H929 cells, the xenograft study was conducted in female NOD SCID mice bearing NCI-H929 multiple myeloma tumors.
(§1) Statistical analysis was performed using two-way analysis of variance (ANOVA). Data are expressed as MTV±SEM.

RPMI-8226 tumors = assay: RPMI-8226 xenograft, crossover from pomalidomide to Compound 1; assay type: in vivo, mice; conditions: 3000 μg/kg/day for 17 days
Description: Vehicle treated animals were treated for 28 days until tumors reached a MTV of 2211 mm^3. […] Data are expressed as MTV±SEM.
Tumor growth was monitored throughout the study. […] Measurements were twice weekly. The health of the mice was monitored, and noteworthy clinical observations were recorded. Acceptable toxicity was defined as a group's mean BW loss of less than 20% during the study and not more than one treatment related death among ten treated animals, or 10%.
Animals were weighed on a twice weekly schedule.

[3] = test system: REC1 mantle cell lymphoma tumors; assay: REC1 mantle cell lymphoma xenograft, balb/c nude mice; assay type: in vivo; conditions: Compound 1 10, 30, or 100 μg/kg; pomalidomide 3000 μg/kg; 18 days
Description: A xenograft study was conducted in female balb/c nude mice bearing REC1 mantle cell lymphoma tumors.
as §1

TMD8 DLBCL tumors = assay: TMD8 DLBCL xenograft, NOD SCID mice; assay type: in vivo; conditions: Compound 1 100 μg/kg; pomalidomide 3000 μg/kg; 18 days
Description: A xenograft study was also conducted in female NOD SCID mice bearing TMD8 DLBCL tumors.
as §1

OCI-LY10 = assay: Anti-proliferative activity, 96 hours; conditions: Homo sapiens, OCI-Ly10, 96 h
TMD8 = assay: Anti-proliferative activity, 96 hours; conditions: Homo sapiens, TMD8, 96 h
SU-DHL-2 = assay: Anti-proliferative activity, 96 hours; conditions: Homo sapiens, SU-DHL-2, 96 h
KARPASS422 = assay: Anti-proliferative activity, 96 hours
Pfeiffer = assay: Anti-proliferative activity, 96 hours; conditions: Homo sapiens
RL = assay: Anti-proliferative activity, 96 hours; conditions: Homo sapiens
DOHH-2 = assay: Anti-proliferative activity, 96 hours; conditions: Homo sapiens, DOHH-2, 96 h
WSU-DLCL2 = assay: Anti-proliferative activity, 96 hours; conditions: Homo sapiens, WSUDLCL2, 96 h
SU-DHL-5 = assay: Anti-proliferative activity, 96 hours; conditions: Homo sapiens, SU-DHL-5, 96 h
Farage = assay: Anti-proliferative activity, 96 hours
SU-DHL-1 = assay: Anti-proliferative activity, 96 hours; conditions: Homo sapiens, SU-DHL-1, 96 h
KIJK = assay: Anti-proliferative activity, 96 hours
DL40 = assay: Anti-proliferative activity, 96 hours
SR = assay: Anti-proliferative activity, 96 hours; conditions: Homo sapiens
HuT 102 = assay: Anti-proliferative activity, 96 hours; conditions: HuT-102, 96 h
HH = assay: Anti-proliferative activity, 96 hours; conditions: Homo sapiens
Mino = assay: Anti-proliferative activity, 96 hours; conditions: Homo sapiens
Rec-1 = assay: Anti-proliferative activity, 96 hours; conditions: Homo sapiens, Rec1, 96 h
Maver-1 = assay: Anti-proliferative activity, 96 hours; conditions: Homo sapiens, Maver1, 96 h
Jeko-1 = assay: Anti-proliferative activity, 96 hours; conditions: Homo sapiens, JeKo-1, 96 h
MM.1S = assay: Anti-proliferative activity, 96 hours; conditions: Homo sapiens, MM1.S
OPM-2 = assay: Anti-proliferative activity, 96 hours; conditions: Homo sapiens, OPM-2, 96 h
KMM-1 = assay: Anti-proliferative activity, 96 hours; conditions: KMM-1, 96 h
H929 = assay: Anti-proliferative activity, 96 hours; conditions: Homo sapiens, NCI-H929, 96 h
MM.1R = assay: Anti-proliferative activity, 96 hours
LP-1 = assay: Anti-proliferative activity, 96 hours; conditions: Homo sapiens, LP-1, 96 h
RPMI 8226 = assay: Anti-proliferative activity, 96 hours; conditions: Homo sapiens, RPMI-8226, 96 h
KMS-26 = assay: Anti-proliferative activity, 96 hours; conditions: KMS-26, 96 h
NCIH929 cells = assay: NCI-H929 viability assay (CellTiter-Glo); conditions: 96 hours
Description: NCIH929 cell viability was determined based on quantification of ATP using CellTiter-Glo®2.0 luminescent Assay kit, which signals the presence of metabolically-active cells. Briefly, test compound was added to 384-well plates at a top concentration of 1 μM with 10 points, half log titration in duplicates. NCIH929 cells were seeded into the 384-well plates in RPMI medium containing 10% FBS and 0.05 mM 2-mercaptoethanol at a cell density of 750 cells per well. Cells treated in the absence of the test compound were the negative control and cells treated in the absence of CellTiter-Glo® 2.0 were the positive control. Cells treated with the test compounds were incubated at 37° C. with 5% CO2 for 96 hr. CellTiter-Glo reagent was then added to the cells and Luminescence was acquired on EnVision™ Multilabel Reader (PerkinElmer, Santa Clara, Calif., USA). % Viability was determined by normalizing the signal with positive and DMSO treated negative controls on the same microtiter plate. […] Curve fit and IC502 determination was performed by 4 parametric regression analysis.

[4] = test system: IMiD-resistant NCIH929 cells; assay: Growth of IMiD-resistant NCIH929 cells (CellTiter-Glo); conditions: at concentrations up to 10 μM
Description: Briefly, test compound was added to 384-well plates at a top concentration of 10 μM with 14 points, half log titration in duplicates. NCIH929 cells were seeded into the 384-well plates in RPMI medium containing 10% FBS and 0.05 mM 2-mercaptoethanol at a cell density of 750 cells per well. Cells treated in the absence of the test compound were the negative control and cells treated in the absence of CellTiter-Glo® 2.0 were the positive control. Cells treated with the test compounds were incubated at 37° C. with 5% CO2 for 96 hr. CellTiter-Glo reagent was then added to the cells and luminescence was acquired on EnVision™ Multilabel Reader (PerkinElmer, Santa Clara, Calif., USA). % Viability was determined by normalizing the signal with positive and DMSO treated negative controls on the same microtiter plate.

[5] = test system: Caspase 3/7 activity in TMD8 cells; assay: Apoptosis induction, Caspase 3/7 activity in TMD8 cells; conditions: Homo sapiens, TMD8, 48 h, read-out: EC50, caspase 3/7 activity
Description: 30 μL TMD8 cells were seeded into the 384-well plates in RPMI medium containing 10% FBS at a cell density of 2000 cells per well. Cells treated in the absence of the test compound were the negative control. Following compound treatment, cells were incubated at 37° C. with 5% CO2 for 48 hr. 30 μL reconstituted Caspase 3/7 Assay detection reagent was added to each well and luminescence was acquired on EnVision™ Multilabel Reader (PerkinElmer, Santa Clara, Calif., USA).

IKZF1 = IKZF1 (Homo sapiens, UniProt Q13422+Q96SW2)
Chain of IKZF1 (Q13422 whole entry): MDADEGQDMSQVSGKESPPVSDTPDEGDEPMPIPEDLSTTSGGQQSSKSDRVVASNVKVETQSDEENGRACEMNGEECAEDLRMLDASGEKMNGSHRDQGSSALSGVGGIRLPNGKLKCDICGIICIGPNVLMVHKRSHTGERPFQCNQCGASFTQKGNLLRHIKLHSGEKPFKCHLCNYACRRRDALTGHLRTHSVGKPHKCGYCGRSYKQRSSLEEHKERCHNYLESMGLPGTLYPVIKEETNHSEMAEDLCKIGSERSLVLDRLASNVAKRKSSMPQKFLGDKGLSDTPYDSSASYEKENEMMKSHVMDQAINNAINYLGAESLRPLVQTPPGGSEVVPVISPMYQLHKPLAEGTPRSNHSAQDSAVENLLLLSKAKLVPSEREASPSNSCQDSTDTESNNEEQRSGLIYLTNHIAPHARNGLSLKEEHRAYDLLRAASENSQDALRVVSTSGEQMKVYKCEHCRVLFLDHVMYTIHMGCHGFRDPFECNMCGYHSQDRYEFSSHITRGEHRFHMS
Chain of IKZF1 (Q96SW2 whole entry): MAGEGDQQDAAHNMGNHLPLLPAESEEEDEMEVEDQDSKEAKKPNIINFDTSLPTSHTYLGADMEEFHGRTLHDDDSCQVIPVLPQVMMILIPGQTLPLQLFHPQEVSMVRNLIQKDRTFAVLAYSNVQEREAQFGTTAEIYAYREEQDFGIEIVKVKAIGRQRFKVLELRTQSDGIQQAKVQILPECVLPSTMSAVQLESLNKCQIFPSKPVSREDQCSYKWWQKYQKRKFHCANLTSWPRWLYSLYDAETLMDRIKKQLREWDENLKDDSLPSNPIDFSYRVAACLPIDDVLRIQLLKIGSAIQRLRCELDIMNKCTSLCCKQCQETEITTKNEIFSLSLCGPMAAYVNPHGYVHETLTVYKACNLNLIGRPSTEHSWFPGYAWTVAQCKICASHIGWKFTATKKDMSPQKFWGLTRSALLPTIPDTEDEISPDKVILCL
Chain of IKZF1 (Q16531 2-1140 partner limits assumed): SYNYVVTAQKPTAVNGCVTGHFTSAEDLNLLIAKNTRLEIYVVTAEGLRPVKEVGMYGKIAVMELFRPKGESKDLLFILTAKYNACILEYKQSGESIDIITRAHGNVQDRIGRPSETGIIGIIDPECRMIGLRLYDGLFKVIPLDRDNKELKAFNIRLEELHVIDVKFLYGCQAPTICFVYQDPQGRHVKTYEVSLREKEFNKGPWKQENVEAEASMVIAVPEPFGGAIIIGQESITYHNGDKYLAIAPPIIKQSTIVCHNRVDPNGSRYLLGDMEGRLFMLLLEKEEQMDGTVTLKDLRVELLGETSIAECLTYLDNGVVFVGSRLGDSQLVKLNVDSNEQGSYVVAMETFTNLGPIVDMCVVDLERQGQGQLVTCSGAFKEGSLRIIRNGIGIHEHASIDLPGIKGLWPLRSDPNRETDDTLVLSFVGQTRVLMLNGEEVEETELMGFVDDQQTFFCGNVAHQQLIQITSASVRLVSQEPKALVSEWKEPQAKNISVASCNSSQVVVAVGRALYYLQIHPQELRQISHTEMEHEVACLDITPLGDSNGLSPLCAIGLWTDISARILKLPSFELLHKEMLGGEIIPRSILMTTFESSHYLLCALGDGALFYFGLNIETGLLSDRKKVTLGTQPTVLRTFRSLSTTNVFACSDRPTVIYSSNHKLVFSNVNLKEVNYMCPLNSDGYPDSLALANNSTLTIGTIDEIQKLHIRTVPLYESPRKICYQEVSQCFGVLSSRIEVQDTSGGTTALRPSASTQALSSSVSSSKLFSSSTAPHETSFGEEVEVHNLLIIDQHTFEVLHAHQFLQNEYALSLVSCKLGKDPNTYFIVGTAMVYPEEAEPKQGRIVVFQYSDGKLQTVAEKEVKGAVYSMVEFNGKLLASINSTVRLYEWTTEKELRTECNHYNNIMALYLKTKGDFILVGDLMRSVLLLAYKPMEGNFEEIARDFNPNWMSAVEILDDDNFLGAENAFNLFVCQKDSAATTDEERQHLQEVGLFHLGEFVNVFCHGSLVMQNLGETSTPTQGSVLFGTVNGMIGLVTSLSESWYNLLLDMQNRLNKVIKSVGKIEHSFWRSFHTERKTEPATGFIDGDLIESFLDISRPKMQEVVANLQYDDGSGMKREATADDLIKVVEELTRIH
Description: Endogenous expression of IKZF1 in NCIH929 cells was determined by addition of N-terminal HiBiT tag to the NCIH929 cell line using CRISPR-Cas9. Briefly, test compound was added to 384-well plates at a top concentration of 1 μM with 10 points, half log titration in duplicates. NCIH929 cells expressing HiBiT-tagged IKZF1 were seeded into the 384-well plates in RPMI medium containing 10% FBS and 0.05 mM 2-mercaptoethanol at a cell density of 15000 cells per well. Cells treated in the absence of the test compound were the negative control and wells containing media only were the positive control. Following compound treatment, cells were incubated at 37° C. with 5% CO2 for 1.5 hr. HiBiT signal was determined using Nano-Glo™ HiBiT Lytic Assay System (Promega, N3050) and luminescence was acquired on EnVision™ Multilabel Reader (PerkinElmer, Santa Clara, Calif., USA). % IKZF1 remaining was determined by normalizing the signal with positive and negative controls on the same microtiter plate. […] Curve fit and IC50 determination was performed by 4 parametric regression analysis.
NCIH929 cells expressing HiBiT-tagged IKZF1 were seeded into the 384-well plates in RPMI medium containing 10% FBS and 0.05 mM 2-mercaptoethanol at a cell density of 15000 cells per well. Cells treated in the absence of the test compound were the negative control and wells containing media only were the positive control. Following compound treatment, cells were incubated at 37° C. with 5% CO2 for 1 or 2 hr. HiBiT signal was determined using Nano-Glo™ HiBiT Lytic Assay System (Promega, N3050) and luminescence was acquired on EnVision™ Multilabel Reader (PerkinElmer, Santa Clara, Calif., USA). % IKZF1 remaining was determined by normalizing the signal with positive and negative controls on the same microtiter plate. Curve fit and IC50 determination was performed by 4 parametric regression analysis.

## Nc1cccc2c1C(=O)N(C1CCC(=O)NC1=O)C2=O (stereo not drawn) [Pomalidomide, reference compound]
[1]
  EC50: 407 nM
[2]
  Statistical Significance Compared to Vehicle: 0.718
RPMI-8226 tumors
  tumor response: no response
[3]
  tumor volume: increased
TMD8 DLBCL tumors
  tumor volume: increased
OCI-LY10
  IC50: 47.7 nM
TMD8
  IC50: 327 nM
SU-DHL-2
  IC50: > 10 µM
KARPASS422
  IC50: 24.4 nM
Pfeiffer
  IC50: > 10 µM
RL
  IC50: > 10 µM
DOHH-2
  IC50: 1150 nM
WSU-DLCL2
  IC50: > 10 µM
SU-DHL-5
  IC50: > 10 µM
Farage
  IC50: > 10 µM
SU-DHL-1
  IC50: 378 nM
KIJK
  IC50: 4.33 µM
DL40
  IC50: > 10 µM
SR
  IC50: > 10 µM
HuT 102
  IC50: > 10 µM
HH
  IC50: > 10 µM
Mino
  IC50: 426 nM
Rec-1
  IC50: 44.8 nM
Maver-1
  IC50: > 10 µM
Jeko-1
  IC50: > 10 µM
MM.1S
  IC50: 71 nM
OPM-2
  IC50: 93.3 nM
KMM-1
  IC50: 527 nM
H929
  IC50: 171 nM
MM.1R
  IC50: 193 nM
LP-1
  IC50: 576 nM
RPMI 8226
  IC50: > 10 µM
KMS-26
  IC50: 2090 nM
NCIH929 cells; % viability
  Mean Emax (%) ± SD, H929 Viability: 15.6 ± 4.2%
NCIH929 cells; read-out: Mean IC50 (nM), H929 Viability
  IC50: 141 nM
[4]
  growth inhibition: less than 50%
[5]
  EC50: 1200 nM
IKZF1; NCI-H929, read-out: Mean Emax (%) ± SD, IKZF1 Degradation
  Emax: 55.7 ± 6%
IKZF1; after 1 hour treatment
  IKZF1 degradation: less than 25%
